Results published in patent US4879273A (The Rockefeller University, priority 1987, dated 1989).
Where no end group is shown, it is not given here.

Key:
[1] = test system: adenylate cyclase; conditions: relative to glucagon = 100; liver membranes
Description: Adenylate Cyclase Assay. The assay on liver membranes was performed according to Salomon et al. [Salomon, Y., Londos, C. & Rodbell, M. Anal. Biochem. 58, 541,548 (1974)]. The released cAMP was mixed with [8-^3 H]cAMP measured with a high affinity cAMP binding protein.
The purpose of the adenylate cyclase assays is to measure the ability of the compound under test to stimulate the activity of adenylate cyclase. The assays are used to measure relative potency, maximum activity and inhibition index.
The inhibition index, defined above, was determined from adenylate cyclase assays by two different protocols.
2. […] Increasing amounts of antagonist were then added and the concentration that reduced the response to 45% of maximum was determined.

[2] = test system: glucagon receptor; conditions: prior-art antagonist; cited from earlier work
[3] = test system: hepatocyte membrane; conditions: prior-art antagonist; cited from earlier work
[4] = test system: adenylate cyclase; conditions: prior-art antagonist; cited from earlier work

CSCC[C@H](NC(=O)[C@H](CC(C)C)NC(=O)[C@H](Cc1c[nH]c2ccccc12)NC(=O)[C@H](CCC(N)=O)NC(=O)[C@@H](NC(=O)[C@H](Cc1ccccc1)NC(=O)[C@H](CC(=O)O)NC(=O)[C@H](CCC(N)=O)NC(=O)[C@H](C)NC(=O)[C@H](CCCNC(=N)N)NC(=O)[C@H](CCCNC(=N)N)NC(=O)[C@H](CO)NC(=O)[C@H](CC(=O)O)NC(=O)[C@H](CC(C)C)NC(=O)[C@H](Cc1ccc(O)cc1)NC(=O)[C@H](CCCCN)NC(=O)[C@H](CO)NC(=O)[C@H](Cc1ccc(O)cc1)NC(=O)[C@H](CCC(=O)O)NC(=O)[C@H](CO)NC(=O)[C@@H](NC(=O)[C@H](Cc1ccccc1)NC(=O)[C@@H](NC(=O)CNC(=O)[C@H](CCC(N)=O)NC(=O)[C@@H](N)CO)[C@@H](C)O)[C@@H](C)O)C(C)C)C(=O)N[C@@H](CC(N)=O)C(=O)N[C@H](C(N)=O)[C@@H](C)O [Compound 2, des-His^1-[Glu^9] glucagon amide]
ADENYL CYCLASE ASSAYS Rel. Potency [1]: < 0.0001

SQGTFTSEYSKYLDSKKAQEFVQWLMNT [Compound 3, des-His^1-[Glu^9 -Lys^17,18 Glu^21] glucagon]
ADENYL CYCLASE ASSAYS Rel. Potency [1]: 0.0001

CSCC[C@H](NC(=O)[C@H](CC(C)C)NC(=O)[C@H](Cc1c[nH]c2ccccc12)NC(=O)[C@H](CCC(N)=O)NC(=O)[C@@H](NC(=O)[C@H](Cc1ccccc1)NC(=O)[C@H](CC(=O)O)NC(=O)[C@H](CCC(N)=O)NC(=O)[C@H](C)NC(=O)[C@H](CCCNC(=N)N)NC(=O)[C@H](CCCNC(=N)N)NC(=O)[C@H](CO)NC(=O)[C@H](CC(=O)O)NC(=O)[C@H](CC(C)C)NC(=O)[C@H](Cc1ccc(O)cc1)NC(=O)[C@H](CCCCN)NC(=O)[C@H](CO)NC(=O)[C@H](Cc1ccc(O)cc1)NC(=O)[C@H](CCC(=O)O)NC(=O)[C@H](CO)NC(=O)[C@@H](NC(=O)[C@H](Cc1ccccc1)NC(=O)[C@@H](NC(=O)CNC(=O)[C@H](CCC(N)=O)NC(=O)[C@@H](N)CO)[C@@H](C)O)[C@@H](C)O)C(C)C)C(=O)N[C@@H](CC(N)=O)C(=O)N[C@H](C(=O)O)[C@@H](C)O [Compound 1, des-His^1-[Glu^9] glucagon]
ADENYL CYCLASE ASSAYS Rel. Potency [1]: < 0.0008

Nα- trinitrophenyl [12-homoarginine] glucagon
binding to the glucagon receptor (in words) [2]: does bind to the glucagon receptor
activation of another binding system leading to inositol triphosphate and calcium ions (in words) [3]: activates another binding system
activation of adenylate cyclase (in words) [4]: without significant activation
